Test: Absorption, distribution, metabolism and excretion of oral [14C]vorasidenib in humans; metabolite profiling in plasma, urine, feces
Details: human, in vivo
Procedure: Metabolite profiling and identification of vorasidenib (AG-881) was performed in plasma, urine, and fecal samples collected from five healthy subjects after a single 50-mg (100 μCi) oral dose of [14C]AG-881 and concomitant intravenous microdose of [^13C3 ^15N3]AG-881.
Plasma samples collected at selected time points from 0 through 336 hour postdose were pooled across subjects to generate 0- to 72 and 96-336-hour area under the concentration-time curve (AUC)-representative samples. Urine and feces samples were pooled by subject to generate individual urine and fecal pools. Plasma, urine, and feces samples were extracted, as appropriate, the extracts were profiled using high performance liquid chromatography (HPLC), and metabolites were identified by liquid chromatography-mass spectrometry (LC-MS and/or LC-MS/MS) analysis and by comparison of retention time with reference standards, when available.
Due to low radioactivity in samples, plasma metabolite profiling was performed by using accelerator mass spectrometry (AMS). In plasma, AG-881 was accounted for 66.24 and 29.47% of the total radioactivity in the pooled AUC0-72 h and […] plasma, respectively. The most abundant radioactive peak (P7; M458) represented 0.10 and 43.92% of total radioactivity for pooled AUC0-72 and AUC96-336 h plasma, respectively. All other radioactive peaks accounted for less than 6% of the total plasma radioactivity and were not identified.

radioactivity recovered in feces, % of the dose	unchanged parent detected in urine	radioactivity recovered in urine, % of the dose	Compound
55.5 % of the dose	no AG-881 was detected	–	C[C@@H](Nc1nc(N[C@H](C)C(F)(F)F)nc(-c2cccc(Cl)n2)n1)C(F)(F)F [AG-881, 6-(6-chloropyridin-2-yl)-N2, N4-bis((R)-1,1,1-trifluoropropan-2-yl)-1,3,5-triazine-2,4-diamine, reference compound]
–	–	2.54 % of the dose	CS(=O)(=O)c1cccc(-c2nc(N)nc(N)n2)n1 [Compound M266]
2-5 % of the dose	–	–	C[C@@H](Nc1nc(N[C@H](C)C(F)(F)F)nc(-c2cccc(S(=O)(=O)O)n2)n1)C(F)(F)F [Compound M460-1]
2-5 % of the dose	–	–	C[C@@H](Nc1nc(N[C@H](C)C(F)(F)F)nc(-c2cccc(SCC(N)C(=O)O)n2)n1)C(F)(F)F (some centres unmarked) [Compound M499]
